Test results published in US20230071014A1 (priority 2020, published 2023).

Experiments:
SARS-CoV = conditions: cited from earlier work; for Inhibitory activity against SARS-CoV: Thorax 2004, 59: 252-256
SARS-CoV-2 = experiment: Ritonavir reducing viral nucleic acid load in SARS-CoV-2 infected Vero E6 cells (qRT-PCR); assay type: cell-based, SARS-CoV-2 (nCoV-2019BetaCoV/Wuhan/WIV04/2019 strain); conditions: for Copy number of virus genome: Vero E6 cells, supernatant, vehicle 5762396
Protocol: (1) Drug Treatment of Virus-Infected Cells
Vero E6 cells (purchased from ATCC, Catalog No. 1586) was inoculated on a 24-well plate, cultured for 24 hours; then virus infection was carried out. Specifically, SARS-CoV-2 (2019-nCoV) virus (nCoV-2019BetaCoV/Wuhan/WIV04/2019 strain, provided by Wuhan Institute of Virology, Chinese Academy of Sciences) was diluted with 2% cell maintenance solution (formulation: FBS (purchased from Gibco company, Catalog No. 16000044) was added to MEM (purchased from Gibco, Catalog No. 10370021) at a volume ratio of 2%, thereby obtaining the 2% cell maintenance solution) to a corresponding concentration, and then added to a 24-well plate so that each well contained a viral load of 100TCID50. […] To the vehicle control group, the 2% cell maintenance solution without any test drugs was added.
RNA extraction kit was purchased from Qiagen Company, Catalog No. 74106. The consumables (spin columns, RNase-free 2 ml collection tubes, etc.) and reagents (RLT, RW1, RPE, RNase-free water, etc.) involved in the following RNA extraction steps were part of the kit. The following extraction steps were recommended steps in the kit instruction.
1) 100 μL of the supernatant was taken from the tested plate and added to a nuclease-free EP tube, then 350 μL of Buffer RLT was added to each well and mixed by beating with a transfer liquid gun until complete lysis was achieved, then centrifugation was carried out to obtain a supernatant;
2) an equal volume of 70% ethanol was added to the supernatant obtained in 1) and mixed well;
3) the mixture solution obtained in 2) was transferred to a RNase-free spin column, and centrifuged at 12000 rpm for 15 seconds, and the waste liquid was discarded;
4) 700 μL of Buffer RW1 was added to the spin column, and centrifuged at 12000 rpm for 15 seconds to clean the spin column, and the waste liquid was discarded;
5) 500 μL of Buffer RPE was added to the spin column, and centrifuged at 12000 rpm for 15 seconds to clean the spin column, and the waste liquid was discarded;
6) 500 μL of Buffer RPE was added to the spin column, and centrifuged at 12000 rpm for 2 min to clean the spin column, the waste was discarded;
7) a new RNase-free 2 ml collection tube was used for replacement, centrifugation was carried out at 12000 rpm for 1 min, the spin column was dried, and then the spin column was transferred to a 1.5 ml collection tube in step 8);
8) a new 1.5 ml collection tube was used for replacement, in which the spin column dried in step 7) was placed, and […] of RNase-free water was added to the spin column, and centrifugation was carried out at 12000 rpm for 2 minutes, the obtained eluate contained the corresponding RNA, then the RNase inhibitor (purchased from NEB company, Catalog No. […]) was added, and Nano Drop (purchased from Thermo scientific, Nano Drop One) was used to detect each RNA concentration.
(3) RNA Reverse Transcription
In the experiment, the reverse transcription kit (PrimeScript™ RT reagent Kit with gDNA Eraser, Catalog No. RRO47Q) produced by TaKaRa was used for RNA reverse transcription.
The steps were as follows.
(1) Removal of gDNA: RNA samples of each experimental group were collected, 1 μg of each sample was taken for reverse transcription. First, 2 μl of 5×gDNA Eraser Buffer was added to the RNA sample of each experimental group, the reaction system was supplemented with RNase-free water to reach 10 μl, mixed well, and subjected to water bath at 42° C. for 2 min to remove the gDNA that might be present in the sample;
(2) Reverse transcription: Appropriate amounts of enzyme, primer Mix and reaction buffer were added to the sample obtained in […], RNase-free water was added to supplement to reach a volume of 20 μl, the reaction was performed in a water bath at 37° C. for 15 minutes, and then in water bath at 85° C. for 5 seconds, to obtain cDNA by transcription. […]

HIV-1 isolates = conditions: low passage clinical isolates, n=13; cited from earlier work

Row | SMILES | Inhibitory activity against SARS-CoV (SARS-CoV) | Copy number of virus genome (SARS-CoV-2; 0.14 μM, 48 hours after infection) | Copy number of virus genome (SARS-CoV-2; 0.41 μM, 48 hours after infection) | Copy number of virus genome (SARS-CoV-2; 1.23 μM, 48 hours after infection) | Copy number of virus genome (SARS-CoV-2; 3.70 μM, 48 hours after infection) | Copy number of virus genome (SARS-CoV-2; 11.11 μM, 48 hours after infection) | Copy number of virus genome (SARS-CoV-2; 33.33 μM, 48 hours after infection) | Reduction of viral RNA load in Vero E6 cells infected by SARS-CoV-2 (SARS-CoV-2; 48 hours after infection, FIG. 1) | Inhibition of the replication of SARS-CoV-2 virus genome in the infected supernatant (SARS-CoV-2; at concentrations of 33 μM, 11.1 μM) | EC50 (HIV-1 isolates) [nM] | Effectiveness against SARS-CoV (SARS-CoV; Biochemical and Biophysical Research Communications 318 (2004) 719-725)
1 | Cc1cccc(C)c1OCC(=O)N[C@@H](Cc1ccccc1)[C@@H](O)C[C@H](Cc1ccccc1)NC(=O)[C@H](C(C)C)N1CCCNC1=O [lopinavir] | inhibits SARS-CoV | – | – | – | – | – | – | – | – | – | –
2 | CC(C)c1nc(CN(C)C(=O)N[C@H](C(=O)N[C@@H](Cc2ccccc2)C[C@H](O)[C@H](Cc2ccccc2)NC(=O)OCc2cncs2)C(C)C)cs1 [ritonavir, [5S-(5R,8R,10R,11R)]-10-hydroxy-2-methyl-5-(1-methylethyl)-1-[2-(1-methylethyl)-4-thiazolyl]-3,6-dioxo-8,11-bis(phenylmethyl)-2,4,7,12-tetraazatridecan-13-oic acid, 5-thiazolyl methyl ester] | does not have inhibitory activity | 6032699 | 5632446 | 5565821 | 6213595 | 2236225 | 1855399 | inhibitory activity is dose-dependent | could effectively inhibit | 22 | ineffective
